Measurements reported in patent publication US10099993B2, “Metabotropic glutamate receptor positive allosteric modulators (PAMS) and uses thereof” (Sanford-Burnham Medical Research Institute, priority 2014, dated 2018).

Assays:
[1] = In vivo PK in rats, i.v. administration; set-up: species or system rat; conditions: 2 mg/kg; for Cmax / Vd: rat, iv, plasma; for Vd: read-out: Vdss
[2] = In vivo PK in rats, p.o. administration; set-up: species or system rat; conditions: 20 mg/kg; for Tmax / Cmax: plasma
mGlu4 = mGlu4 (Rattus norvegicus (Rat), UniProt P31423); assay: mGlu4 GIRK thallium flux assay; format: cell-based; conditions: full agonist concentration-response ± 10 μM compound
Chain of mGlu4 (P31423 33-912): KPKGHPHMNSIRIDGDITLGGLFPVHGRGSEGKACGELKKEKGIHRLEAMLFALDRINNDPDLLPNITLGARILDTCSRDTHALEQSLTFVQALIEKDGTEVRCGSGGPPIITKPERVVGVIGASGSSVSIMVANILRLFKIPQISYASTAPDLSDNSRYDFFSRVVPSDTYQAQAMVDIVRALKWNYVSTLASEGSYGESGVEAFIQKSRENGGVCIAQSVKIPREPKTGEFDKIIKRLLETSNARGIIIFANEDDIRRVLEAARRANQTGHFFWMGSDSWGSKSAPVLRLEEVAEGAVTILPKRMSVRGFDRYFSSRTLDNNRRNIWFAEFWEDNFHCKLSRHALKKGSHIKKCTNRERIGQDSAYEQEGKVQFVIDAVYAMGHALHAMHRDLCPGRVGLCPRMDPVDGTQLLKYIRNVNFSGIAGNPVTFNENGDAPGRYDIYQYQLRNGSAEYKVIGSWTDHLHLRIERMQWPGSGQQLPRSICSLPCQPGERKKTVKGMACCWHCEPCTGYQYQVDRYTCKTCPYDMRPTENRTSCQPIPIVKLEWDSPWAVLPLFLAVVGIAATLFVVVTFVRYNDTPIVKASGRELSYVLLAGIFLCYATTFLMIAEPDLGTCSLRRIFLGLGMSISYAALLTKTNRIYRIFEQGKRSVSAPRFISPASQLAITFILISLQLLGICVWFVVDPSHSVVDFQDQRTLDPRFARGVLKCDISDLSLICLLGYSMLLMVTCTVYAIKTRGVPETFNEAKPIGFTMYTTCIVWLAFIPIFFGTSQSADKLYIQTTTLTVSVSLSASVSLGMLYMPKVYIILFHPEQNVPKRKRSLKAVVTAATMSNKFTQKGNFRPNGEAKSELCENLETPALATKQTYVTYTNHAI

mGlu3 = mGlu3 (Rattus norvegicus (Rat), UniProt P31422); assay: mGlu3 GIRK thallium flux assay; conditions: for EC50: read-out: mGlu3 PAM EC50, test compound, then EC20 glutamate […] later in the presence of thallium; for Emax: read-out: mGlu3 PAM Max;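 for all read-outs here: kinetic fluorescence slope read shortly after thallium plus agonist addition, scaled between vehicle and maximal agonist control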
mGlu6 = mGlu6 (Rattus norvegicus (Rat), UniProt P35349); assay: mGlu6 GIRK thallium flux assay; format: cell-based; conditions: full agonist concentration-response ± 10 μM compound
Chain of mGlu6 (P35349 24-871): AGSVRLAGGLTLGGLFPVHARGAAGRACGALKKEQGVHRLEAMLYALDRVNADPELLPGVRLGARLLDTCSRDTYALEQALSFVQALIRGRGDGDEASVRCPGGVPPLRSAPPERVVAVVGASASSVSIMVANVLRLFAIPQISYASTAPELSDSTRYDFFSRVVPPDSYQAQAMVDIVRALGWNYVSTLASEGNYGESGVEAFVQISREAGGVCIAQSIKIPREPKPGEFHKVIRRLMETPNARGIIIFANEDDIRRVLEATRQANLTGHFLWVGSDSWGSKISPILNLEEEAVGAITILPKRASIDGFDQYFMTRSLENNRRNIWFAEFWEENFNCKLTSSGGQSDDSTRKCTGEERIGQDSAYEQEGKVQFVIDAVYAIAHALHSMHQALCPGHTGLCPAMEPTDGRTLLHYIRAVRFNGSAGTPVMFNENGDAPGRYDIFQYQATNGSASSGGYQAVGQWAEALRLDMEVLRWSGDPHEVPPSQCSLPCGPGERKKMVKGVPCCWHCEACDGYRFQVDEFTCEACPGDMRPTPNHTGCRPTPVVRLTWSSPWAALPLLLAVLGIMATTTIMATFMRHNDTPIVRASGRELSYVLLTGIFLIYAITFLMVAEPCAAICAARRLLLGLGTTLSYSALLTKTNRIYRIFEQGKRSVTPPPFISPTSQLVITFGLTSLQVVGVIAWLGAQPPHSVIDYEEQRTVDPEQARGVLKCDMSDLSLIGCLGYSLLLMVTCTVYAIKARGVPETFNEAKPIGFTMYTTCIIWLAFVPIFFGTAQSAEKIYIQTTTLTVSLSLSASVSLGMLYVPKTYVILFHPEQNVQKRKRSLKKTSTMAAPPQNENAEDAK

mGlu2 = mGlu2 (Rattus norvegicus (Rat), UniProt P31421); assay: mGlu2 GIRK thallium flux assay; conditions: for General activity at mGlu2: full agonist concentration-response ± 10 μM compound; for EC50: read-out: mGlu2 PAM EC50, test compound, then EC20 glutamate […] later in the presence of thallium; for Emax: read-out: mGlu2 PAM Max;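 for all read-outs here: Cell-based assay, rate of fluorescence rise right after thallium plus agonist addition read on a kinetic imaging plate reader, normalized to vehicle and maximal agonist control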
Chain of mGlu2 (P31421 19-872): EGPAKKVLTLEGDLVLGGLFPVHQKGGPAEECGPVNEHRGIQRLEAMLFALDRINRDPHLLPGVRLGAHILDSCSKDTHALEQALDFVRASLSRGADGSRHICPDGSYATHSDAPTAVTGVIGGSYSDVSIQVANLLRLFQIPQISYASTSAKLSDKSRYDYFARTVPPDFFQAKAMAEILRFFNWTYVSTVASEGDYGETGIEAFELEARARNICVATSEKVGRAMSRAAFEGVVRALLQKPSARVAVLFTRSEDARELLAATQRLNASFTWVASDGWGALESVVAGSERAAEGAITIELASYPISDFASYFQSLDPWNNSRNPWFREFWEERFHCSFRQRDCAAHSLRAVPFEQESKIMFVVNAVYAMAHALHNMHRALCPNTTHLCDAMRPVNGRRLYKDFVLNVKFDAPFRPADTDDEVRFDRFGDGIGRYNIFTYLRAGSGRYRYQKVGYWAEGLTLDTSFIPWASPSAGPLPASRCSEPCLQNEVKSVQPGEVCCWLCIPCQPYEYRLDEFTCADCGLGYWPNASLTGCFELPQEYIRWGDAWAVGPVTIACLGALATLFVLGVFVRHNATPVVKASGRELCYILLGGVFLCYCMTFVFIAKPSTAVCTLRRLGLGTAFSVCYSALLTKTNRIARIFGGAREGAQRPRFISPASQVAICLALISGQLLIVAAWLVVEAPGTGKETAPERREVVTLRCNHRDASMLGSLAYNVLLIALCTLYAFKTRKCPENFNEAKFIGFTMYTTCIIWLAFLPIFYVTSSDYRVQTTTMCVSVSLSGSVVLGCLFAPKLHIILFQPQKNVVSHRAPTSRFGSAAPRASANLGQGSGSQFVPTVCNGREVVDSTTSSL

mGlu1 = mGlu1 (Rattus norvegicus (Rat), UniProt P23385); assay: mGlu1 calcium assay; format: cell-based; conditions: full agonist concentration-response ± 10 μM compound
mGlu7 = mGlu7 (Rattus norvegicus (Rat), UniProt P35400); assay: mGlu7 GIRK thallium flux assay; format: cell-based; conditions: full L-AP4 concentration-response ± 10 μM compound
Chain of mGlu7 (P35400 35-915): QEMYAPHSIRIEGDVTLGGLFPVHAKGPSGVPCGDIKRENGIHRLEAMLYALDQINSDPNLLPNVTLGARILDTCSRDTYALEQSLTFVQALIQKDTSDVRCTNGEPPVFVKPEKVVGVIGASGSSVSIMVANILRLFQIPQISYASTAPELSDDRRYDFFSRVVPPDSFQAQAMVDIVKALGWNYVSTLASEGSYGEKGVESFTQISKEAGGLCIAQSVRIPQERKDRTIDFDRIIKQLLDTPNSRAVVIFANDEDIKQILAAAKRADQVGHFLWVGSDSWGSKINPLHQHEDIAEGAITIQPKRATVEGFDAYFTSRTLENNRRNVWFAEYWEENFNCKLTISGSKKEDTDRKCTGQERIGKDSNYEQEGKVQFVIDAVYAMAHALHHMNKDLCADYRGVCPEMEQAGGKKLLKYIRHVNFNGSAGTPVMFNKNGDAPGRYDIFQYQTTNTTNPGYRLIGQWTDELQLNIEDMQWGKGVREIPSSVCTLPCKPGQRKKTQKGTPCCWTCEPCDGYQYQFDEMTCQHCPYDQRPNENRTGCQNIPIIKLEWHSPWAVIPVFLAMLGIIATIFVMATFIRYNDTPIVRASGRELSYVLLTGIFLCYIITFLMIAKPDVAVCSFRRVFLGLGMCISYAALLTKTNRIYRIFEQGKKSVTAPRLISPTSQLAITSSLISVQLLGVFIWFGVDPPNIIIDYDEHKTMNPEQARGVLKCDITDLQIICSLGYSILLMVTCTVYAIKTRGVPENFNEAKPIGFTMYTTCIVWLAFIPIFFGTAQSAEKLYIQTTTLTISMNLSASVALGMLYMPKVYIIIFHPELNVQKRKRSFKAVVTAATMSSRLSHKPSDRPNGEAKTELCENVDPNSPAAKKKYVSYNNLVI

mGlu8 = mGlu8 (Rattus norvegicus (Rat), UniProt P70579); assay: mGlu8 GIRK thallium flux assay; format: cell-based; conditions: full agonist concentration-response ± 10 μM compound
mGlu5 = mGlu5 (Rattus norvegicus (Rat), UniProt P31424); assay: mGlu5 calcium assay; format: cell-based; conditions: full agonist concentration-response ± 10 μM compound
Chain of mGlu5 (P31424 21-1203): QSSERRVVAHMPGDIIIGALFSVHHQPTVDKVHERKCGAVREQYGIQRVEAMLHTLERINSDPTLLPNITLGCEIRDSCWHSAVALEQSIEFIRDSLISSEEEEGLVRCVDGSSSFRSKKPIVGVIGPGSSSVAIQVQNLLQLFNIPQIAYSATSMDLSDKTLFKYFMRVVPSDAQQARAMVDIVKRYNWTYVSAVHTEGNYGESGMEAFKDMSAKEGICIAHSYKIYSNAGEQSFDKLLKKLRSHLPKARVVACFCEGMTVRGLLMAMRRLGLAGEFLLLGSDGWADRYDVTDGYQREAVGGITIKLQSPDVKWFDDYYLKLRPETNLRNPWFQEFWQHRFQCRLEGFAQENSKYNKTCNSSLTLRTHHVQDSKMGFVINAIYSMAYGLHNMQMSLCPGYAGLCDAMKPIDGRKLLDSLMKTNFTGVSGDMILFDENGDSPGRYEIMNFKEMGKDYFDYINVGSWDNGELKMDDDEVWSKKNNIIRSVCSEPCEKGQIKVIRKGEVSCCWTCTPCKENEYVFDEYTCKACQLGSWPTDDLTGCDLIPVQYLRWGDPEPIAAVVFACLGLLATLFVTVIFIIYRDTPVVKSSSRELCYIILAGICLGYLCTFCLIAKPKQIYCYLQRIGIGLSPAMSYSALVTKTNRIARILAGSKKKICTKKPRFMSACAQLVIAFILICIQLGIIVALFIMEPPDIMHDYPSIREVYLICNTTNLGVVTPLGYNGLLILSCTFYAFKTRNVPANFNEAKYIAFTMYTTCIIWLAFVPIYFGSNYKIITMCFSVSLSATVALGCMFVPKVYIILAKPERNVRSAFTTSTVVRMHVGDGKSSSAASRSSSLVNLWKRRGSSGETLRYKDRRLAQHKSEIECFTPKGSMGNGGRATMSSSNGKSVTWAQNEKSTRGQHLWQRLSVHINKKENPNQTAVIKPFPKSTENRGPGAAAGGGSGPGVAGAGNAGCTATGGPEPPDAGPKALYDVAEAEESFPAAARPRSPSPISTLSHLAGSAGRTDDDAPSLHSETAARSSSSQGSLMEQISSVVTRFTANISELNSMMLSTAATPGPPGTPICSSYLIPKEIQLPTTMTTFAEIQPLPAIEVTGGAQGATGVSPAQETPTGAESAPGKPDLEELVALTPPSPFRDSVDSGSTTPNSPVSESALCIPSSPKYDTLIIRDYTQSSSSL

[3] = PAM mode, mean ± SEM, at least three experiments

SMILES	EC50 (mGlu3; PAM mode, mean ± SEM) [µM]	Emax (mGlu3) [%]	EC50 (mGlu2; [3]) [µM]	Emax (mGlu2) [%]	also measured
Cc1c(OCCCCOc2ccc(F)c(C(=O)O)c2)ccc(C(=O)CC(C)C)c1O [Compound 36, 2-Fluoro-5-(4-(3-hydroxy-2-methyl-4-(3-methylbutanoyl)phenoxy)butoxy)benzoic acid]					AUC(0→t) [1]: 123.7 ± 7.7 (μmol/L)*min; Cmax [1]: 3520 ± 130 nM; Vd [1]: 0.89 ± 0.03 L/kg; AUC(0→t) [2]: 720.5 ± 283.4 (μmol/L) min; F, oral bioavailability [2]: 58.2%; Plasma ([2]; harvested at or near the Tmax): 4.23 ± 1.19 µM; Kp ([2]; rat, brain and plasma, po, read-out: Brain:Plasma ratio): 0.06 ± 0.03; Tmax ([2]; rat, po): 0.5 h; Cmax ([2]; rat, po): 12500 nM
Cc1c(OCCCCOc2cccc(C(=O)O)c2)ccc(C(=O)CC2CCCC2)c1O [Compound 25, 3-(4-(4-(2-Cyclopentylacetyl)-3-hydroxy-2-methylphenoxy)butoxy)benzoic acid]					General activity at mGlu4 (mGlu4): inactive^b; General activity at mGlu3 (mGlu3; full agonist concentration-response ± 10 μM compound): PAM; Emin, minimal response of the concentration-response of agonist (mGlu3; mGlu3, 10 μM compound): Emin = 6%; General activity at mGlu6 (mGlu6): inactive^b; General activity at mGlu2 (mGlu2): Ago-PAM; Emin, minimal response of the concentration-response of agonist (mGlu2; mGlu2, 10 μM compound): Emin = 45%; General activity at mGlu1 (mGlu1): inactive^b; General activity at mGlu7 (mGlu7): inactive^b; General activity at mGlu8 (mGlu8): inactive^b; General activity at mGlu5 (mGlu5): inactive^b
Cc1c(OCCCCOc2ccc(C(=O)O)c(Cl)c2)ccc(C(=O)CC2CCCC2)c1O [Compound 33, 2-Chloro-4-(4-(4-(2-cyclopentylacetyl)-3-hydroxy-2-methylphenoxy)butoxy)benzoic acid]					General activity at mGlu4 (mGlu4): inactive^b; General activity at mGlu6 (mGlu6): inactive^b; General activity at mGlu2 (mGlu2): Ago-PAM; General activity at mGlu1 (mGlu1): inactive^b; General activity at mGlu7 (mGlu7): inactive^b; General activity at mGlu8 (mGlu8): inactive^b; General activity at mGlu5 (mGlu5): inactive^b
Cc1c(OCc2cccc(-c3cnc(C(=O)O)cn3)c2)ccc(C(=O)CC(C)(C)C)c1O [Compound 181, 5-(3-((4-(3,3-Dimethylbutanoyl)-3-hydroxy-2-methylphenoxy)methyl)phenyl)pyrazine-2-carboxylic acid]	4.28 ± 0.064	106 ± 2.1	2.134 ± 0.008	105 ± 3.4	
Cc1c(OCc2ccnc(-c3cccc(C(=O)O)c3)c2)ccc(C(=O)CC(C)(C)C)c1O [compound 149, 3-(4-((4-(3,3-Dimethylbutanoyl)-3-hydroxy-2-methylphenoxy)methyl)pyridin-2-yl)benzoic acid]	0.203 ± 0.001	112 ± 3.8	0.23 ± 0.002	108 ± 1.2	
COC(=O)CCc1cc(OCCCCOc2ccc(C(=O)CC3CCCC3)c(O)c2C)ccc1O [compound 86]	> 30		> 10		
Cc1c(OCc2cccc(-c3cccc(S(=O)(=O)O)c3)c2)ccc(C(=O)CC(C)(C)C)c1O [compound 164, 3′-((4-(3,3-Dimethylbutanoyl)-3-hydroxy-2-methylphenoxy)methyl)-[1,1′-biphenyl]-3-sulfonic acid]		103 ± 1.9		101 ± 2.8	
CONC(=O)c1ccc(OC)c(OCCCCOc2ccc(C(=O)CC(C)(C)C)c(O)c2C)c1 [compound 90, 3-(4-(4-(3,3-Dimethylbutanoyl)-3-hydroxy-2-methylphenoxy)butoxy)-N,4-dimethoxybenzamide]	6.6 ± 1.45	78.7 ± 6.2	3.89 ± 0.317	82.4 ± 3.4	
Cc1c(OCc2cccc(-c3ccc(Cl)c(C(=O)O)c3)c2)ccc(C(=O)CC(C)C)c1O [compound 169]	2.99 ± 0.359		0.278 ± 0.049		mGlu3 PAM Max (mGlu3; PAM mode, % Glutamate Max, mean ± SEM): 76.1 ± 5.1%; mGlu2 PAM Max (mGlu2; PAM mode, % Glutamate Max, mean ± SEM, at least three experiments): 77.6 ± 1.8%
Cc1c(OCc2cccc(-c3cccc(C(=O)O)c3)c2)ccc(C(=O)C(C)C)c1O [compound 131, 3′-((3-Hydroxy-4-isobutyryl-2-methylphenoxy)methyl)-[1,1′-biphenyl]-3-carboxylic acid]	1.75 ± 0.891	55 ± 24.4	0.222 ± 0.082	83.2 ± 12.3	
Cc1c(OCCCCOc2ccc3c(c2)B(O)OC3)ccc(C(=O)CC(C)(C)C)c1O [compound 94, 1-(2-Hydroxy-4-(4-((1-hydroxy-1,3-dihydrobenzo [c][1,2]oxaborol-6-yl)oxy)butoxy)-3-methylphenyl)-3,3-dimethylbutan-1-one]		94 ± 3.8		83.9 ± 3.4	
COc1ccc(C(=O)N2CCOCC2)cc1OCCCCOc1ccc(C(=O)CC(C)(C)C)c(O)c1C [compound 101, 1-(2-Hydroxy-4-(4-(2-methoxy-5-(morpholine-4-carbonyl)phenoxy)butoxy)-3-methylphenyl)-3,3-dimethylbutan-1-one]	0.741 ± 0.006	132 ± 5	0.875 ± 0.003	113 ± 1.2	
COc1ccc(C(=O)O)cc1OCCCCOc1ccc(C(=O)CC(C)C)c(O)c1C [Compound 50, 3-{4-[3-Hydroxy-2-methyl-4-(3-methylbutanoyl)phenoxy]butoxy}-4-methoxybenzoic acid]					AUC(0→t) [1]: 77.2 ± 8.0 (μmol/L)*min; Cmax [1]: 2150 ± 140 nM; Vd [1]: 2.87 ± 0.6 L/kg; AUC(0→t) [2]: 466.2 ± 105.2 (μmol/L) min; F, oral bioavailability [2]: 60.4%; Tmax ([2]; rat, po): 1.6 h; Cmax ([2]; rat, po): 1050 nM
COC(=O)c1ccc(OCCCCOc2ccc(C(=O)CC3CCCC3)c(O)c2C)cc1 [Compound 17, Methyl 4-(4-(4-(2-cyclopentylacetyl)-3-hydroxy-2-methylphenoxy)butoxy)benzoate]	> 30		> 30		
COC(=O)c1ccc(OCCCCOc2ccc(C(=O)CC3CCCC3)c(C)c2C)cc1 [Compound 15, Methyl 4-(4-(4-(2-cyclopentylacetyl)-2,3-dimethylphenoxy)butoxy)benzoate]	> 30		> 30		
CCCC(=O)c1ccc(OCCCCOc2ccc(C(=O)O)cc2OC)c(C)c1O [compound 67]					General activity at mGlu4 (mGlu4): Antagonist; General activity at mGlu6 (mGlu6): inactive^b; General activity at mGlu1 (mGlu1): Antagonist; General activity at mGlu7 (mGlu7): inactive^b; General activity at mGlu8 (mGlu8): inactive^b; General activity at mGlu5 (mGlu5): inactive^b
Cc1c(OCCCCOc2ccc(F)c(C(=O)O)c2)ccc(C(=O)CC2CCCC2)c1C [Compound 35, 5-(4-(4-(2-Cyclopentylacetyl)-2,3-dimethylphenoxy)butoxy)-2-fluorobenzoic acid]	> 30		> 30		
CNC(=O)c1ccc(OC)c(OCCCCOc2ccc(C(=O)CC(C)(C)C)c(O)c2C)c1 [compound 102, 3-(4-(4-(3,3-Dimethylbutanoyl)-3-hydroxy-2-methylphenoxy)butoxy)-4-methoxy-N-methylbenzamide]	> 10	39.2 ± 5.2	5.16 ± 0.082	70.9 ± 2.3	
Cc1cc(-c2cccc(COc3ccc(C(=O)CC(C)(C)C)c(O)c3C)c2)ccc1C(=O)O [compound 143, 3′-((4-(3,3-Dimethylbutanoyl)-3-hydroxy-2-methylphenoxy)methyl)-3-methyl-[1,1′-biphenyl]-4-carboxylic acid]	3.06 ± 0.624	78.3 ± 21.1	0.571 ± 0.138	87 ± 11.7	
Cc1c(OCc2ccc(-c3cccc(C(=O)O)c3)cc2)ccc(C(=O)CC(C)(C)C)c1O [compound 142, 4′-((4-(3,3-Dimethylbutanoyl)-3-hydroxy-2-methylphenoxy)methyl)-[1,1′-biphenyl]-3-carboxylic acid]	2.2 ± 0.753	88.7 ± 9.5	3.18 ± 0.626	97.1 ± 8.2	
Cc1c(OCc2cccc(-c3ccc(O)c(C(=O)O)c3)c2)ccc(C(=O)CC(C)(C)C)c1O [compound 144, 3′-((4-(3,3-dimethylbutanoyl)-3-hydroxy-2-methylphenoxy)methyl)-4-hydroxy-[1,1′-biphenyl]-3-carboxylic acid]	0.701 ± 0.176	46.9 ± 5.6	0.232 ± 0.016	59.6 ± 4	
COc1ccc(-c2noc(=O)[nH]2)cc1OCCCCOc1ccc(C(=O)CC(C)(C)C)c(O)c1C [compound 98, 3-(3-(4-(4-(3,3-Dimethylbutanoyl)-3-hydroxy-2-methylphenoxy)butoxy)-4-methoxyphenyl)-1,2,4-oxadiazol-5(4H)-one]	1.23 ± 0.185	102 ± 4.7	0.681 ± 0.09	101 ± 2.9	
COC(=O)c1ccc(OCCCCOc2ccc(C(=O)CC(C)C)c(O)c2C)cc1 [Compound 16, Methyl 4-(4-(3-hydroxy-2-methyl-4-(3-methylbutanoyl)phenoxy)butoxy)benzoate]	> 30		> 30		
COc1ccc(C(=O)O)cc1-c1cccc(COc2ccc(C(=O)CC(C)(C)C)c(O)c2C)c1 [compound 134, 3′-((4-(3,3-Dimethylbutanoyl)-3-hydroxy-2-methylphenoxy)methyl)-6-methoxy-[1,1′-biphenyl]-3-carboxylic acid]	0.324 ± 0.094	76.4 ± 5.4	0.118 ± 0.002	89.6 ± 2.9	
Cc1c(OCc2cccc(COc3ccc(C#N)cc3)c2)ccc(C(=O)CC(C)C)c1C [compound 115]	> 30		> 30		
